Patent publication US11576875B2 (priority 2017, dated 2023)
Entries after “also recorded” stand apart in the source; their conditions may differ.

Legend:
[1] = test system: mouse myoblast cell line (C2C12 cells); assay: Thickness of myotubes differentiated from mouse myoblasts, muscle reduction induced by dexamethasone; format: cell-based
Procedure: First, differentiation of myotubes from mouse myoblasts was induced. A mouse myoblast cell line (C2C12 cells) was purchased from ATCC (Manassas, Va., USA) and used. The purchased cells were inoculated in 10% fetal bovine serum media (Gibco-BRL) and incubated in a 5% CO2 incubator at 37° C. When the confluency of the cells attached to the media became 80% or higher, the cells were transferred to 2% horse serum media (Gibco-BRL) to differentiate myoblasts into myotubes.
For two days (48 hours) from day 4 after differentiation into myotubes started to be induced, the media were treated with 50 μM dexamethasone (dexa; Sigma Aldrich, USA) to induce muscle reduction. […] As a non-treated control, cells treated with only dexamethasone and not treated with ethyl vanillin were used.
After completion of the incubation, the cells were washed twice with phosphate buffered saline (PBS), and then fixed by treatment with 100% methanol for 10 minutes. […]
The stained myotubes were photographed using a fluorescence microscope (IX 71, Olympus) at a magnification of 10×, and then analyzed using image J software (USA). Six sections were randomly selected from each well and micrographed, and the thickness of at least 100 myotubes from each well was analyzed (three repetitions/group).

[2] = test system: animal model with high-fat-diet-induced muscle loss; assay: Four limb hanging test in mice fed a high-fat diet; format: in vivo, C57BL/6N mice; conditions: 0.2% ethyl vanillin in high-fat diet, week 10
Procedure: A normal diet group (Chow) was fed commercial rodent chow. Ethyl vanillin was purchased from Sigma-Aldrich. [table] To measure the limb muscle strength of mice, the time that the mice hung upside down using their four feet was measured at week 10 of breeding. The time (seconds) that the mice hung upside down in a cage equipped with a wire mesh cover (diameter<0.5 cm) (20×30×50 cm, Jeung-Do Bio & Plant Co., Ltd, Korea) was measured a total of three times, and a rest period of 30 minutes or longer was given between measurements. Experimental results were obtained by multiplying hanging time (sec) by body weight (kg). The statistical analysis of all data was performed using the Statistical Package for the Social Sciences (SPSS version 21.0, IBM, Armonk, N.Y., USA), and analysis values were expressed as mean±SEM, and a significant difference between groups was verified by ANOVA.

[3] = test system: animal model with high-fat-diet-induced muscle loss; assay: Fiber diameter of tibialis anterior muscle tissue (H&E staining); format: in vivo, C57BL/6N mice; conditions: 0.2% ethyl vanillin in high-fat diet, 10 weeks
Procedure: A normal diet group (Chow) was fed commercial rodent chow. Ethyl vanillin was purchased from Sigma-Aldrich. [table] Muscle tissues of mice were extracted, fixed in 10% formalin, and then stained with hematoxylin and eosin (H&E) after requesting Korea CFC (Gyeonggi-do, Korea) to do so, and observed using an optical microscope (IX71, Olympus, JPN) and photographed using a digital camera (DP71, Olympus, JPN). The statistical analysis of all data was performed using the Statistical Package for the Social Sciences (SPSS version 21.0, IBM, Armonk, N.Y., USA), and analysis values were expressed as mean±SEM, and a significant difference between groups was verified by ANOVA.

[4] = test system: animal model with high-fat-diet-induced muscle loss; assay: Grip test in mice fed a high-fat diet; format: in vivo, C57BL/6N mice; conditions: 0.2% ethyl vanillin in high-fat diet, week 10
Procedure: A normal diet group (Chow) was fed commercial rodent chow. Ethyl vanillin was purchased from Sigma-Aldrich. [table] To measure the grip strength of mice, grip strength was measured using four feet of the mice at week 10 of breeding. A force (N) for mice to hold a wire mesh was measured a total of five times using a grip strength measurer equipped with a wire mesh (20×10 cm) (Daejong Instrument Industry Co., Ltd., Korea), and a rest period of 1 minute or longer was given between measurements. Experimental results were obtained by dividing the measured force (N) by body weight (kg). The statistical analysis of all data was performed using the Statistical Package for the Social Sciences (SPSS version 21.0, IBM, Armonk, N.Y., USA), and analysis values were expressed as mean±SEM, and a significant difference between groups was verified by ANOVA.

[5] = test system: Myostatin; assay: mRNA expression level by RT-PCR in myotubes; format: cell-based, mouse; conditions: ethyl vanillin with dexamethasone vs dexamethasone control
Procedure: (§1) After completing the incubation of all experimental groups and the control, cells of each group were obtained, 334 μl of a TRIzol solution per 1×10^7 myotubes was added and replaced, followed by centrifugation at 12,000×g and 4° C. for 10 minutes. Thereafter, the supernatant was transferred to a new tube and 67 μl of chloroform was added thereto, followed by mixing by vortexing. The supernatant in the mixed solution was transferred again to a new tube, and isopropanol was added thereto in a ratio of 1:1 (v:v) of isopropanol to supernatant, followed by vigorous shaking about 10 times and being left at room temperature for 15 minutes. Once again, centrifugation was carried out at 12,000×g and 4° C. for 10 minutes to remove a supernatant, and 1 ml of 70% ethanol was added to the precipitate, followed by centrifugation at 7,500×g and 4° C. for 5 minutes to remove the ethanol, and the tubes were dried at room temperature for 15 minutes. Finally, precipitated RNA was dissolved in nuclease free water to obtain RNA extracted from the cells. The concentration of RNA was identified by measuring absorbance at wavelengths of 260 nm and 280 nm using a UV/VIS spectrometer, and was subjected to electrophoresis to confirm the integrity of RNA samples.
(§2) Reverse transcription-polymerase chain reaction (RT-PCR) was performed using the prepared RNA samples. The obtained RNA samples were used as templates and reverse transcription was performed using oligo dT primers and SuperScript Reverse Transcriptase (GIBCO BRL, Gaithersburg, Md., USA) to synthesize cDNA. The synthesized cDNA was used as a template and PCR was performed using primer pairs (forward primers and reverse primers) shown in Table 1 below. Each primer was constructed based on the 5′ and 3′ flanking sequence of cDNA of the template gene to be amplified. After PCR was completed, 1 μl of each amplified PCR product was subjected to electrophoresis on agarose gel to confirm generated DNA bands.

[6] = test system: MaFbx/atrogin 1; assay: mRNA expression level by RT-PCR in myotubes; format: cell-based, mouse; conditions: ethyl vanillin with dexamethasone vs dexamethasone control
Procedure: as §1, §2

[7] = test system: MuRF1; assay: mRNA expression level by RT-PCR in myotubes; format: cell-based, mouse; conditions: ethyl vanillin with dexamethasone vs dexamethasone control
Procedure: as §1, §2

[8] = test system: p-4E-BP1 protein; assay: Protein expression level by Western blotting in myotubes; format: cell-based, mouse; conditions: ethyl vanillin with dexamethasone vs dexamethasone control
Procedure: (§3) After completing the incubation of all experimental groups and the control, the media were removed and a lysis buffer was added to each well to lyse the cells. As the lysis buffer, a 100 mM Tris-HCl buffer solution (pH 7.4) containing 5 mM EDTA, 50 mM sodium pyrophosphate, 50 mM NaF, 100 mM orthovanadate, 1% Triton X-100, 1 mM phenylmethanesulfonyl fluoride (PMSF), […] of aprotinin, 1 μg/mL of pepstatin A, and 1 μg/mL of leupeptin was used. After lysing the cells, the lysates were obtained, and then centrifuged at 1,300×g and 4° C. for 20 minutes, and then the middle layer was taken as a protein layer in the cell extract. For the protein layer, the concentrations of proteins were quantified by the Bradford method. 40 μg of the quantified proteins were electrophoresed by SDS-PAGE, and then the separated proteins were transferred to nitrocellulose membranes (Amersham, Buckinghamshire, UK). Then, the membranes were washed three times for 10 minutes using a Tris-buffered saline and Tween 20 solution (TBS-T), followed by blocking using 10% skim milk for 60 minutes. […] Bands visualized on the X-ray film were scanned and quantified using Quantity One analysis software (Bio-Rad).

[9] = test system: p-p70S6K1 protein; assay: as above; format: cell-based, mouse; conditions: ethyl vanillin with dexamethasone vs dexamethasone control
Procedure: as §3

[10] = cited from earlier work

## CCOc1cc(C=O)ccc1O [ethyl vanillin, 3-ethoxy-4-hydroxybenzaldehyde]
[1]; 100 μM ethyl vanillin along with 50 μM dexamethasone, 48 hours, C2C12 myotubes
  increase in thickness of myotubes compared to reduction caused by dexamethasone: 49%
[1]; treated with ethyl vanillin, vs dexamethasone
  number of myotubes of mouse myoblasts reduced by dexamethasone: significantly increased
[2]
  increase in holding impulse (hanging time x body weight) vs high-fat diet: 147%
[3]
  increase in fiber diameter of the tibialis anterior vs high-fat diet: 57%
[4]
  increase in grip strength (force/body weight) vs high-fat diet: 27%
[5]
  expression of Myostatin (mRNA): significantly reducing
[6]
  expression of MaFbx/atrogin 1 (mRNA): significantly reducing; also recorded: significantly reduces
[7]
  expression of MuRF1 (mRNA): significantly reducing; also recorded: significantly reduces
[8]
  amount of p-4E-BP1 protein: significantly increases
[9]
  amount of p-p70S6K1 protein: significantly increases
[10]; chloroform
  solubility in chloroform: soluble
[10]; ethanol
  solubility in ethanol: soluble
[10]; water
  solubility in water: insoluble
